Consider 14 molecules from patent US11787785B2 (NOVARTIS AG, priority 2021, dated 2023).

Experiment [1] has as its target T1, WIZ protein (HiBit-WIZ fusion protein) (Homo sapiens, UniProt O95785+Q96SW2).
T1 construct: expressed in transfected cells
Description: Quantification of WIZ protein levels in HiBit tag fusion protein assay (WIZ HiBit assay in 293T cells). Type of experiment: cell-based. Details: remaining activity / Dmax: dose or concentration left out as unconfirmed. The conditions noted are these: for Dmax at 25 µM / remaining activity at 25 µM / Dmax / remaining activity: HEK-293T; for Dmax at 25 µM: 100 − Amax; for Dmax at 25 µM / remaining activity at 25 µM: 293T cells; for Dmax at 25 µM / Dmax: read-out: % degradation of WIZ (100 − Amax); for remaining activity at 25 µM: DMSO-normalized, curve-fitted percentage of WIZ-HiBit remaining at 25 uM; for remaining activity at 25 µM / remaining activity: read-out: WIZ Amax; for DC50: WIZ HiBit assay in 293T cells, 10-point, 5-fold dose response, highest concentration 25 μM, about 18 hours, read-out: WIZ AC50. Summed up:
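Luminescence after LgBit complementation quantified remaining HiBit-WIZ in lysates of single-copy stable 293T lines. Cells dosed ~18 h at 37 °C with 10-point, 5-fold dilutions (highest 25 μM); DMSO set to 100%, fitted curve gave % remaining at 25 μM (Amax).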
A general note: HiBiT is a short tag that completes a luciferase, so light tracks the accessible tagged protein.

In another experiment the test system is Fetal Hemoglobin (HbF). As to the kind of experiment: Small molecule HbF induction assay (mPB CD34+ cells erythroid differentiated, flow cytometry). The experiment is classed as cell-based. The conditions noted are these: Homo sapiens, 168 h; for Emax: 7 days with compound, baseline DMSO approximately 30-40%, read-out: HbF Amax (highest percentage of cells staining positive for HbF in the fitted dose-response curve); for pEC50: erythroid differentiated in presence of compound for 7 days, flow cytometry. The method, then:
Cryopreserved primary human CD34^+ hematopoietic stem and progenitor cells were obtained from AllCells, LLC. The CD34^+ cells were isolated from the peripheral blood of healthy donors after mobilization by administration of granulocyte colony-stimulating factor. Cells were differentiated ex vivo toward the erythroid lineage using a 2-phase culture method. In the first phase, cells were cultured in StemSpan™ Serum-Free Expansion Media (SFEM) ([…] Technologies Inc.) supplemented with rhSCF (50 ng/mL, Peprotech®, Inc.), rhIL-6 (50 ng/mL, Peprotech®, Inc.), rhIL-3 (50 ng/mL, Peprotech®, Inc.), and rhFlt3L (50 ng/mL, Peprotech®, Inc.), and 1× antibiotic-antimycotic (Life Technologies, Thermo Fisher Scientific) for 6 days at 37° C. with 5% CO2. During the second phase, cells were cultured in erythroid differentiation media at 5,000 cells/mL in the presence of compound for 7 days at 37° C. with 5% CO2. Erythroid Differentiation Media is comprised of IMDM (Life Technologies) supplemented with insulin (10 μg/mL, Sigma Aldrich), heparin (2 U/mL Sigma Aldrich), holo-transferrin (330 μg/mL, Sigma Aldrich), human serum AB (5%, Sigma Aldrich), hydrocortisone (1 μM, […] Technologies), rhSCF (100 ng/mL, Peprotech®, Inc.), rhIL-3 (5 ng/mL, Peprotech®, Inc.), rhEPO (3 U/mL, Peprotech®, Inc.), and 1× antibiotic-antimycotic. All compounds were dissolved and diluted into dimethylsulfoxide (DMSO) and were added to culture media for a final concentration of 0.3% DMSO for testing in a 7-point, 1:3 dilution series starting at 30 uM.
Staining and Flow Cytometry
For viability analysis, samples were washed and resuspended in phosphate-buffered saline (PBS) and stained with LIVE/DEAD™ Fixable Violet Dead Cell Stain Kit (Life Technologies, L34963) for 20 minutes. Cells were then washed again with PBS and resuspended in PBS supplemented with 2% fetal bovine serum (FBS), and 2 mM EDTA to prepare for cell surface marker analysis. Cells were labeled with allophycocyanin-conjugated CD235a (1:100, BD Biosciences, 551336) and Brilliant Violet-conjugated CD71 (1:100, BD Biosciences, 563767) antibodies for 20 minutes. For analysis of cytoplasmic Fetal Hemoglobin (HbF), cells were fixed and permeabilized using the Fixation (BioLegend®, 420801) and Permeabilization Wash (BioLegend®, 421002) Buffers according to the manufacturer's protocol. During the permeabilization step, cells were stained with phycoerythrin-conjugated or FITC-conjugated HbF-specific antibody (1:10-1:25, Invitrogen™, MHFH04-4) for 30 minutes. Stained cells were washed with phosphate-buffered saline before analysis on the FACSCanto™ II flow cytometer or LSRFortessa™ (BD Biosciences). Data analysis was performed with FIowJo™ Software (BD Biosciences).
HbF Induction Activity of Compounds (Table 2)
mPB CD34+ cells were expanded for 6 days, then erythroid differentiated in the presence of compound for 7 days. Cells were fixed, stained and analyzed by flow cytometry. […] HbF Amax=the highest percentage of cells staining positive for HbF (% HbF+ cells) in the fitted dose-response curve. The baseline % HbF+ cells for DMSO-treated cells is approximately 30-40%.
(In general: In flow cytometry, cells or beads pass a laser one at a time.)

Experiment [2] concerns HbF. The settings on record: ex vivo, human primary erythroid cells; cited from earlier work.
The subject of experiment [3] is HbF. The settings on record: in vivo; cited from earlier work.

pEC50: −log10 of the molar value. Read-outs that look alike come from different tables or passages of the source.

T1 sequence (O95785 whole entry, the tested form may be a part): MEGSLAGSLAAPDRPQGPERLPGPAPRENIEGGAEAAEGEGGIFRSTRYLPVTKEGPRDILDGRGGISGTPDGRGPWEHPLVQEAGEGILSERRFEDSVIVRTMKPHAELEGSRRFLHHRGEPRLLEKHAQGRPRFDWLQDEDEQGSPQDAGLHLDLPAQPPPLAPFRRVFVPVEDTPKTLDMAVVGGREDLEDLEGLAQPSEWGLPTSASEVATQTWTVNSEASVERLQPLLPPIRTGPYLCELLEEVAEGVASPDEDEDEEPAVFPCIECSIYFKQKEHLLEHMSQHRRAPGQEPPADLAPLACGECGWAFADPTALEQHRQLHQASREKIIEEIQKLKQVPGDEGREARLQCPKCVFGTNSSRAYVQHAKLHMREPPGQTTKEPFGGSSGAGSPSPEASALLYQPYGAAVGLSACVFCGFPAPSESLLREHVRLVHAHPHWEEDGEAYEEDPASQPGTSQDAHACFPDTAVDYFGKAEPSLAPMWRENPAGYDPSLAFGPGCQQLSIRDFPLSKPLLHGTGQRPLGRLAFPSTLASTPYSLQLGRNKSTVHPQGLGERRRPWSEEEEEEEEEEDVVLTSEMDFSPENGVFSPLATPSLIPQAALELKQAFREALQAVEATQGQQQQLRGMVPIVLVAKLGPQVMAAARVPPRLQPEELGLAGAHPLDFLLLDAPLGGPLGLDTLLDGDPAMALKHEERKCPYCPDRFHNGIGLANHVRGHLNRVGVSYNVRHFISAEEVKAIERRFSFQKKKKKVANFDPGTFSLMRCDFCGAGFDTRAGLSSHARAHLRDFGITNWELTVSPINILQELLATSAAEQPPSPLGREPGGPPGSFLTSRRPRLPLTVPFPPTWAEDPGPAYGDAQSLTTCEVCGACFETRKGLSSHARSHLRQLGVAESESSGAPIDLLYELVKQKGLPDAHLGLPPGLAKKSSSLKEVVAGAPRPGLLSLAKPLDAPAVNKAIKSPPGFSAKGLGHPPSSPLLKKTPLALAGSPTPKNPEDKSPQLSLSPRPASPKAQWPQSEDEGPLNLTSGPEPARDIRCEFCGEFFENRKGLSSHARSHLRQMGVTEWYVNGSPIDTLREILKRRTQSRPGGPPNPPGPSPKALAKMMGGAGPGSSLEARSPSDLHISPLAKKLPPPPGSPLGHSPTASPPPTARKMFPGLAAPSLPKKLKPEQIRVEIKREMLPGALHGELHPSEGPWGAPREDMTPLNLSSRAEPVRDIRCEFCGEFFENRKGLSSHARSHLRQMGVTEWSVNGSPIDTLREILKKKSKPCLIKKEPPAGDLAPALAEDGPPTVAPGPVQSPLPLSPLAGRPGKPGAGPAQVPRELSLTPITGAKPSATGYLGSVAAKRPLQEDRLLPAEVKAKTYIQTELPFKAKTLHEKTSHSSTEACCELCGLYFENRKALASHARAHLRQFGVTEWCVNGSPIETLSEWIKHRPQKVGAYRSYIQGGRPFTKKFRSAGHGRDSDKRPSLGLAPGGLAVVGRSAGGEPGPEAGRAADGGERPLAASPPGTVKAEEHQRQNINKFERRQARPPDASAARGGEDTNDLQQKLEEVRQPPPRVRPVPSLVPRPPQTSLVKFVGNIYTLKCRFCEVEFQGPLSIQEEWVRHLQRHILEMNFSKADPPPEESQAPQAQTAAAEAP
T1 sequence (Q96SW2 whole entry, the tested form may be a part): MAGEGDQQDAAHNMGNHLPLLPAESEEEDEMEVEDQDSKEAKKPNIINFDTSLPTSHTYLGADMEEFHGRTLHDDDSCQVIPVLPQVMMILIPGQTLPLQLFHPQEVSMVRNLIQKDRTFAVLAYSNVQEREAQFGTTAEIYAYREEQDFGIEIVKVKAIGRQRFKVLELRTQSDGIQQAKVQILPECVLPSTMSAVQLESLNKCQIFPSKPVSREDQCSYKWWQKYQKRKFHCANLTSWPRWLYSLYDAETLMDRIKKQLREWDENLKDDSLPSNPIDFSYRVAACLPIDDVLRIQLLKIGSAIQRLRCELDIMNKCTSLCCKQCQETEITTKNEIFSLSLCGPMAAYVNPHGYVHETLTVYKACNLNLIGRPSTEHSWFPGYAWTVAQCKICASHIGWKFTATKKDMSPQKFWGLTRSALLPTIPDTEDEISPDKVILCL
T1 sequence (Q16531 whole entry partner, the tested form may be a part): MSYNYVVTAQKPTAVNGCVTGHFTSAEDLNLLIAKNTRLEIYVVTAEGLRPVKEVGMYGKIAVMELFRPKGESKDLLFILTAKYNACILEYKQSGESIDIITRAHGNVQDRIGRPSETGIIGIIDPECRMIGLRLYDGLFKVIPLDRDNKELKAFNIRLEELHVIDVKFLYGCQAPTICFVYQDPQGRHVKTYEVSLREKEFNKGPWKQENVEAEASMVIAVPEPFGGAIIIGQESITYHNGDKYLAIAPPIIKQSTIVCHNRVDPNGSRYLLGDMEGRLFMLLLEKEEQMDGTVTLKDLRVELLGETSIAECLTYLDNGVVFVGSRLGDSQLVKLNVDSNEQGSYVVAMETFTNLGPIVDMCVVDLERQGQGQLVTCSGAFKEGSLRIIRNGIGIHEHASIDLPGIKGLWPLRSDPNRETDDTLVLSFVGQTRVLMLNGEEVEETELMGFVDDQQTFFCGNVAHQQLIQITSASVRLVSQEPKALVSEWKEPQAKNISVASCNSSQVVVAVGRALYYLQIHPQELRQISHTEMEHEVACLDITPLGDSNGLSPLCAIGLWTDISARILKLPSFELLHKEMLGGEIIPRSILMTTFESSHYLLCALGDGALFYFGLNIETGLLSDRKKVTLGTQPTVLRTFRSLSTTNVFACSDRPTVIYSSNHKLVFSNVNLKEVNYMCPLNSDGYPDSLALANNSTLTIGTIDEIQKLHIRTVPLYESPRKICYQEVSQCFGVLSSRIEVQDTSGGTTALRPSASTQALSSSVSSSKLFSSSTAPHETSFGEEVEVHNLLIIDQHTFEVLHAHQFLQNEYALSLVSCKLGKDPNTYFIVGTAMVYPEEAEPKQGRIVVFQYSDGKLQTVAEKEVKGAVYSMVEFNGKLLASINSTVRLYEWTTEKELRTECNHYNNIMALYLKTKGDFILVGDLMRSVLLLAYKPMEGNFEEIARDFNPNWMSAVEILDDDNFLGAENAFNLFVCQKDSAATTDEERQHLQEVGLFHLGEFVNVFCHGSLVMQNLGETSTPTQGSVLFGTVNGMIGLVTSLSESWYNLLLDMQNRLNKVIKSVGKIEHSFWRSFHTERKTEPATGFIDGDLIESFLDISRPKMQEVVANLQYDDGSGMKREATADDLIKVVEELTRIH

In general, pEC50 refers to −log10 of the EC50, conventionally taken in molar units. Regarding `CC(C)CN1CCC(Cc2ccn3ncc(N4CCC(=O)NC4=O)c3c2)CC1` [Example 109, 1-(5-((1-isobutylpiperidin-4-yl)methyl)pyrazolo[1,5-a]pyridin-3-yl)dihydropyrimidine-2,4(1H,3H)-dione], in experiment [1], the Dmax at 25 µM amounted to 82%, the remaining activity at 25 µM was determined as 18% and the DC50 is 0.039 µM. Further, in the experiment on Fetal Hemoglobin (HbF), the Emax worked out at 77% and the pEC50 is 6.89.

With `C[C@H]1C[C@H](Cc2ccn3ncc(N4CCC(=O)NC4=O)c3c2)CCN1CC1CCC(F)(F)CC1` [Example 141, 1-(5-(((2S,4R)-1-((4,4-difluorocyclohexyl)methyl)-2-methylpiperidin-4-yl)methyl)pyrazolo[1,5-a]pyridin-3-yl)dihydropyrimidine-2,4(1H,3H)-dione], in experiment [1], the Dmax at 25 µM worked out at 91%, the remaining activity at 25 µM stood at 9% and the DC50 was 0.002 µM. In addition, in the experiment with Fetal Hemoglobin (HbF), the Emax stood at 90% and the pEC50 is 8.22.

With `C[C@H]1C[C@H](Cc2ccn3ncc(N4CCC(=O)NC4=O)c3c2)CCN1CC1CCOCC1` [Example 142], in experiment [1], the Dmax at 25 µM was found to be 89%, the remaining activity at 25 µM stood at 11% and the DC50 worked out at 0.011 µM. For the same molecule, in the experiment with Fetal Hemoglobin (HbF), the Emax came to 89% and the pEC50 is 7.42.

Take `CC(C)CN1CC[C@@H](Cc2ccn3ncc(N4CCC(=O)NC4=O)c3c2)C[C@@H]1C` [Example 145]: in experiment [1], the Dmax at 25 µM amounted to 84%, the remaining activity at 25 µM was found to be 16% and the DC50 was 0.025 µM. Moreover, in the experiment on Fetal Hemoglobin (HbF), the Emax is 76% and the pEC50 was 7.52.

Take `O=C1CCN(c2cnn3ccc(CN4CCN(CC5CCCCC5)CC4)cc23)C(=O)N1` [Example 156, 1-(5-((4-(cyclohexylmethyl)piperazin-1-yl)methyl)pyrazolo[1,5-a]pyridin-3-yl)dihydropyrimidine-2,4(1H,3H)-dione]: in experiment [1], the Dmax worked out at 86%, the remaining activity came out at 14% and the DC50 stood at 0.023 µM. In the experiment with Fetal Hemoglobin (HbF), the Emax turned out to be 81% and the pEC50 was 7.92.

As to `O=C1CCN(c2cnn3ccc(CN4CCN(CC5CCOCC5)CC4)cc23)C(=O)N1` [Example 160], in experiment [1], the Dmax at 25 µM is 82%, the remaining activity at 25 µM stood at 18% and the DC50 was found to be 0.045 µM. Also, in the experiment with Fetal Hemoglobin (HbF), the Emax was found to be 84% and the pEC50 was 6.00.

For the molecule `CO[C@H]1CC[C@H](CN2CCN(Cc3ccn4ncc(N5CCC(=O)NC5=O)c4c3)CC2)CC1` [Example 179, 1-(5-((4-(((1r,4r)-4-methoxycyclohexyl)methyl)piperazin-1-yl)methyl)pyrazolo[1,5-a]pyridin-3-yl)dihydropyrimidine-2,4(1H,3H)-dione], in experiment [1], the Dmax at 25 µM is 82%, the remaining activity at 25 µM came out at 18% and the DC50 was 0.049 µM. Also, in the experiment with Fetal Hemoglobin (HbF), the Emax came to 79% and the pEC50 is 7.13.

Take `CC(C)CN1CCN(Cc2ccn3ncc(N4CCC(=O)NC4=O)c3c2)C[C@@H]1C` [Example 203, (S)-1-(5-((4-isobutyl-3-methylpiperazin-1-yl)methyl)pyrazolo[1,5-a]pyridin-3-yl)dihydropyrimidine-2,4(1H,3H)-dione]: in experiment [1], the Dmax at 25 µM was 84%, the remaining activity at 25 µM came out at 16% and the DC50 was 0.025 µM. In the experiment on Fetal Hemoglobin (HbF), the Emax was 82% and the pEC50 is 7.35.

Consider `C[C@H]1CN(Cc2ccn3ncc(N4CCC(=O)NC4=O)c3c2)CCN1CC1CCC(F)(F)CC1` [Example 207], for which, in experiment [1], the Dmax at 25 µM amounted to 86%, the remaining activity at 25 µM is 14% and the DC50 is 0.014 µM. Besides, in the experiment on Fetal Hemoglobin (HbF), the Emax stood at 85% and the pEC50 was 7.05.

`CO[C@H]1CC[C@H](CN2CCN(Cc3ccn4ncc(N5CCC(=O)NC5=O)c4c3)C[C@@H]2C)CC1` [Example 210, 1-(5-(((S)-4-(((1r,4S)-4-methoxycyclohexyl)methyl)-3-methylpiperazin-1-yl)methyl)pyrazolo[1,5-a]pyridin-3-yl)dihydropyrimidine-2,4(1H,3H)-dione]: in experiment [1], the Dmax at 25 µM is 86%, the remaining activity at 25 µM was 14% and the DC50 came out at 0.016 µM. Moreover, in the experiment on Fetal Hemoglobin (HbF), the Emax turned out to be 86% and the pEC50 was 7.19.

`CCS(=O)(=O)N1CC[C@@H](Cc2ccn3ncc(N4CCC(=O)NC4=O)c3c2)C[C@@H]1C` [Example 283, 1-(5-(((2S,4R)-1-(ethylsulfonyl)-2-methylpiperidin-4-yl)methyl)pyrazolo[1,5-a]pyridin-3-yl)dihydropyrimidine-2,4(1H,3H)-dione]: in experiment [1], the Dmax is 80%, the remaining activity amounted to 19% and the DC50 stood at 0.029 µM. In addition, in the experiment on Fetal Hemoglobin (HbF), the Emax worked out at 61% and the pEC50 is 6.90.

For the molecule `C[C@H]1C[C@H](Cc2ccn3ncc(N4CCC(=O)NC4=O)c3c2)CCN1C(=O)C1CC1` [Example 287, 1-(5-(((2S,4R)-1-(cyclopropanecarbonyl)-2-methylpiperidin-4-yl)methyl)pyrazolo[1,5-a]pyridin-3-yl)dihydropyrimidine-2,4(1H,3H)-dione], in experiment [1], the Dmax stood at 81%, the remaining activity was determined as 19% and the DC50 came out at 0.015 µM. Besides, in the experiment with Fetal Hemoglobin (HbF), the Emax amounted to 63% and the negative logarithm of the EC50 (pEC50) was 7.22.

As to `Nc1cccc2c1CN(C1CCC(=O)NC1=O)C2=O` (stereo not shown) [lenalidomide], the HbF induction entry with HbF [2] and with HbF [3] was “induce HbF” each time.

Take `Nc1cccc2c1C(=O)N(C1CCC(=O)NC1=O)C2=O` (stereo not shown) [pomalidomide]: the HbF induction result in the experiment with HbF [2] and with HbF [3] was “induce HbF” throughout.
